Measurements taken from PMC7531004, “Discovery of gramicidin A analogues with altered activities by multidimensional screening of a one-bead-one-compound library” (Nature Communications, 2020).
Where a SMILES comes first, the peptide text is derived from it. [ ]: non-standard residue; d: D form. The star is where a group is joined. NHCH2CH2OH = OCCN*; For = O=C*

Columns and labels:
[1] = cell viability/%
Method in brief: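 P388 cells at 1 × 10^4 cells/mL (final) were exposed to library peptides (stocks diluted 250-fold in RPMI1640/10% FBS) for 92 h at 37 °C, 5% CO2. Viable cells were counted by WST-1/1-methoxy PMS (4 h), absorbance 415 nm, and expressed as cell viability (%).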

[2] = H+/Na+ transport assay of bead-derived peptides (one-point); type: biochemical; design: key: relative activity; mean of two control wells = 1.00; details: bead-derived peptide solution, EYPC/EYPG LUVs;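 note: relative to parent gramicidin A activity set to 1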
Method in brief: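 Miniaturized 96-well format. LUVs with entrapped pyranine (1.0 mM) were exposed to peptide for 30 min at RT. Intensities were expressed relative to full lysis by Triton X-100 and no treatment, with control-well mean = 1.00.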

[3] = system: Streptococcus pyogenes SSI-9; assay: Antibacterial activity assay of bead-derived peptides (three concentrations); type: cell-based; design: key: +++: inhibition by the 640-fold diluted peptide solution; ++: inhibition by the 160-fold diluted solution; +: inhibition by the 40-fold diluted solution; -: no inhibition; details: S. pyogenes, bead-derived peptide solution, three concentrations
Method in brief: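 Undiluted, 4-fold and 16-fold DMSO-diluted peptide stocks; S. pyogenes SSI-9, 2 × 10^5 CFU, cation-adjusted MHB (50 mg/L Ca2+, 25 mg/L Mg2+) + 5% laked horse blood; 37 °C, 18 h; readout = cell pellet visible or not.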

Structure (SMILES) | viability [1] [%] | H+/Na+ transport activity normalized against the value of 1 (1.00) [2] | antibacterial activity [3]
CC(C)C[C@@H](NC(=O)[C@H](Cc1c[nH]c2ccccc12)NC(=O)[C@H](NC(=O)[C@@H](NC(=O)[C@H](NC(=O)[C@H](C)NC(=O)[C@H](NC(=O)[C@H](C)NC(=O)CNC(=O)[C@@H](NC=O)C(C)C)[C@H](C)O)C(C)C)C(C)C)C(C)C)C(=O)N[C@@H](Cc1c[nH]c2ccccc12)C(=O)N[C@@H](C(=O)N[C@@H](Cc1c[nH]c2ccccc12)C(=O)N[C@@H](C(=O)N[C@@H](Cc1c[nH]c2ccccc12)C(=O)NCCO)C(C)C)C(C)C [compound 629] (For-VGA[dT]A[dV]V[dV]W[dL]W[dV]W[dV]W-NHCH2CH2OH) | 100 | 1.12 | -
CC(C)C[C@@H](NC(=O)[C@H](C)NC(=O)CNC(=O)[C@@H](NC=O)C(C)C)C(=O)N[C@@H](C)C(=O)N[C@H](CC(C)C)C(=O)N[C@H](C(=O)N[C@@H](C(=O)N[C@@H](Cc1c[nH]c2ccccc12)C(=O)N[C@H](CC(C)C)C(=O)N[C@@H](Cc1c[nH]c2ccccc12)C(=O)N[C@@H](C(=O)N[C@@H](Cc1c[nH]c2ccccc12)C(=O)N[C@@H](C(=O)N[C@@H](Cc1c[nH]c2ccccc12)C(=O)NCCO)C(C)C)C(C)C)C(C)C)C(C)C [compound 2557] (For-VGA[dL]A[dL]V[dV]W[dL]W[dV]W[dV]W-NHCH2CH2OH) | 31 | 1.21 | ++
CC(C)C[C@@H](NC(=O)[C@H](C)NC(=O)CNC(=O)[C@@H](NC=O)C(C)C)C(=O)N[C@@H](C)C(=O)N[C@@H](C(=O)N[C@H](C(=O)N[C@@H](C(=O)N[C@@H](Cc1c[nH]c2ccccc12)C(=O)N[C@@H](C(=O)N[C@@H](Cc1c[nH]c2ccccc12)C(=O)N[C@@H](C(=O)N[C@@H](Cc1c[nH]c2ccccc12)C(=O)N[C@H](CC(C)C)C(=O)N[C@@H](Cc1c[nH]c2ccccc12)C(=O)NCCO)C(C)C)C(C)C)C(C)C)C(C)C)C(C)C [compound 5056] (For-VGA[dL]A[dV]V[dV]W[dV]W[dV]W[dL]W-NHCH2CH2OH) | 100 | 1.01 | +
CC(C)C[C@@H](NC(=O)[C@H](C)NC(=O)CNC(=O)[C@@H](NC=O)C(C)C)C(=O)N[C@@H](C)C(=O)N[C@H](CC(C)C)C(=O)N[C@H](C(=O)N[C@@H](C(=O)N[C@@H](Cc1c[nH]c2ccccc12)C(=O)N[C@H](CC(C)C)C(=O)N[C@@H](Cc1c[nH]c2ccccc12)C(=O)N[C@@H](C(=O)N[C@@H](Cc1c[nH]c2ccccc12)C(=O)N[C@@H](C(=O)N[C@@H](Cc1c[nH]c2ccccc12)C(=O)NCCO)C(C)C)C(C)C)[C@H](C)O)C(C)C [compound 8130] (For-VGA[dL]A[dL]V[dT]W[dL]W[dV]W[dV]W-NHCH2CH2OH) | 100 | 1.17 | -
CC(C)C[C@@H](NC(=O)[C@H](C)NC(=O)CNC(=O)[C@@H](NC=O)C(C)C)C(=O)N[C@@H](C)C(=O)N[C@H](CC(C)C)C(=O)N[C@H](C(=O)N[C@@H](C(=O)N[C@@H](Cc1c[nH]c2ccccc12)C(=O)N[C@@H](C(=O)N[C@@H](Cc1c[nH]c2ccccc12)C(=O)N[C@@H](C(=O)N[C@@H](Cc1c[nH]c2ccccc12)C(=O)N[C@H](CC(C)C)C(=O)N[C@@H](Cc1c[nH]c2ccccc12)C(=O)NCCO)C(C)C)C(C)C)[C@H](C)O)C(C)C [compound 4784] (For-VGA[dL]A[dL]V[dT]W[dV]W[dV]W[dL]W-NHCH2CH2OH) | 100 | 1.19 | -
CNC(=O)C[C@@H](NC(=O)[C@H](C)NC(=O)[C@H](NC(=O)[C@H](C)NC(=O)CNC(=O)[C@@H](NC=O)C(C)C)C(C)C)C(=O)N[C@H](C(=O)N[C@H](CC(C)C)C(=O)N[C@@H](Cc1c[nH]c2ccccc12)C(=O)N[C@@H](C(=O)N[C@@H](Cc1c[nH]c2ccccc12)C(=O)N[C@@H](C(=O)N[C@@H](Cc1c[nH]c2ccccc12)C(=O)N[C@@H](C(=O)N[C@@H](Cc1c[nH]c2ccccc12)C(=O)NCCO)C(C)C)C(C)C)C(C)C)C(C)C [compound 13148] (For-VGA[dV]A[dD](NHMe)V[dL]W[dV]W[dV]W[dV]W-NHCH2CH2OH) | 93.6 | 1.03 | -
CC(C)C[C@@H](NC(=O)[C@H](C)NC(=O)CNC(=O)[C@@H](NC=O)C(C)C)C(=O)N[C@@H](C)C(=O)N[C@@H](C(=O)N[C@H](C(=O)N[C@H](CC(C)C)C(=O)N[C@@H](Cc1c[nH]c2ccccc12)C(=O)N[C@H](CC(C)C)C(=O)N[C@@H](Cc1c[nH]c2ccccc12)C(=O)N[C@@H](C(=O)N[C@@H](Cc1c[nH]c2ccccc12)C(=O)N[C@@H](C(=O)N[C@@H](Cc1c[nH]c2ccccc12)C(=O)NCCO)C(C)C)[C@H](C)O)C(C)C)[C@H](C)O [compound 381] (For-VGA[dL]A[dT]V[dL]W[dL]W[dT]W[dV]W-NHCH2CH2OH) | 100 | 1.03 | -
CNC(=O)C[C@@H](NC(=O)[C@@H](NC(=O)[C@@H](CC(C)C)NC(=O)[C@H](C)NC(=O)[C@@H](CC(C)C)NC(=O)[C@H](C)NC(=O)CNC(=O)[C@@H](NC=O)C(C)C)C(C)C)C(=O)N[C@@H](Cc1c[nH]c2ccccc12)C(=O)N[C@@H](C(=O)N[C@@H](Cc1c[nH]c2ccccc12)C(=O)N[C@H](CC(C)C)C(=O)N[C@@H](Cc1c[nH]c2ccccc12)C(=O)N[C@@H](C(=O)N[C@@H](Cc1c[nH]c2ccccc12)C(=O)NCCO)[C@H](C)O)C(C)C [compound 3280] (For-VGA[dL]A[dL]V[dD](NHMe)W[dV]W[dL]W[dT]W-NHCH2CH2OH) | 100 | 1.20 | -
CC(C)C[C@@H](NC(=O)[C@H](Cc1c[nH]c2ccccc12)NC(=O)[C@@H](CC(C)C)NC(=O)[C@@H](NC(=O)[C@H](NC(=O)[C@H](C)NC(=O)[C@H](NC(=O)[C@H](C)NC(=O)CNC(=O)[C@@H](NC=O)C(C)C)C(C)C)C(C)C)C(C)C)C(=O)N[C@@H](Cc1c[nH]c2ccccc12)C(=O)N[C@H](CC(C)C)C(=O)N[C@@H](Cc1c[nH]c2ccccc12)C(=O)N[C@@H](C(=O)N[C@@H](Cc1c[nH]c2ccccc12)C(=O)NCCO)C(C)C [compound 511] (For-VGA[dV]A[dV]V[dL]W[dL]W[dL]W[dV]W-NHCH2CH2OH) | 1.8 | 1.01 | ++
CNC(=O)C[C@@H](NC(=O)[C@@H](NC(=O)[C@@H](CC(C)C)NC(=O)[C@H](C)NC(=O)[C@H](NC(=O)[C@H](C)NC(=O)CNC(=O)[C@@H](NC=O)C(C)C)C(C)C)C(C)C)C(=O)N[C@@H](Cc1c[nH]c2ccccc12)C(=O)N[C@@H](C(=O)N[C@@H](Cc1c[nH]c2ccccc12)C(=O)N[C@H](CC(C)C)C(=O)N[C@@H](Cc1c[nH]c2ccccc12)C(=O)N[C@H](CC(C)C)C(=O)N[C@@H](Cc1c[nH]c2ccccc12)C(=O)NCCO)C(C)C [compound 603] (For-VGA[dV]A[dL]V[dD](NHMe)W[dV]W[dL]W[dL]W-NHCH2CH2OH) | 100 | 1.10 | -
CNC(=O)C[C@@H](NC(=O)[C@H](Cc1c[nH]c2ccccc12)NC(=O)[C@@H](CC(C)C)NC(=O)[C@H](Cc1c[nH]c2ccccc12)NC(=O)[C@@H](CC(C)C)NC(=O)[C@@H](NC(=O)[C@H](NC(=O)[C@H](C)NC(=O)[C@H](NC(=O)[C@H](C)NC(=O)CNC(=O)[C@@H](NC=O)C(C)C)C(C)C)C(C)C)C(C)C)C(=O)N[C@@H](Cc1c[nH]c2ccccc12)C(=O)N[C@H](CC(C)C)C(=O)N[C@@H](Cc1c[nH]c2ccccc12)C(=O)NCCO [compound 4203] (For-VGA[dV]A[dV]V[dL]W[dL]W[dD](NHMe)W[dL]W-NHCH2CH2OH) | 100 | 1.16 | -
CC(C)C[C@@H](NC(=O)[C@H](Cc1c[nH]c2ccccc12)NC(=O)[C@@H](CC(C)C)NC(=O)[C@@H](NC(=O)[C@H](NC(=O)[C@H](C)NC(=O)[C@H](NC(=O)[C@H](C)NC(=O)CNC(=O)[C@@H](NC=O)C(C)C)C(C)C)C(C)C)C(C)C)C(=O)N[C@@H](Cc1c[nH]c2ccccc12)C(=O)N[C@@H](C(=O)N[C@@H](Cc1c[nH]c2ccccc12)C(=O)N[C@@H](C(=O)N[C@@H](Cc1c[nH]c2ccccc12)C(=O)NCCO)C(C)C)C(C)C [compound 100] (For-VGA[dV]A[dV]V[dL]W[dL]W[dV]W[dV]W-NHCH2CH2OH) | 9.5 | 1.18 | ++
CNC(=O)C[C@@H](NC(=O)[C@@H](NC(=O)[C@@H](CC(C)C)NC(=O)[C@H](C)NC(=O)[C@@H](CC(C)C)NC(=O)[C@H](C)NC(=O)CNC(=O)[C@@H](NC=O)C(C)C)C(C)C)C(=O)N[C@@H](Cc1c[nH]c2ccccc12)C(=O)N[C@@H](C(=O)N[C@@H](Cc1c[nH]c2ccccc12)C(=O)N[C@@H](C(=O)N[C@@H](Cc1c[nH]c2ccccc12)C(=O)N[C@@H](C(=O)N[C@@H](Cc1c[nH]c2ccccc12)C(=O)NCCO)C(C)C)C(C)C)C(C)C [compound 3931] (For-VGA[dL]A[dL]V[dD](NHMe)W[dV]W[dV]W[dV]W-NHCH2CH2OH) | 100 | 1.16 | -
